Test system in one data set: not listed separately
Description: Foam quality and stability screen in 70% w/w ethanol solution. In kind it is physicochemical. Also on record: key: Poor: little to no foam generated; Moderate: some foam generated, and/or foam generated collapsed rapidly; Good: large amount of foam was generated and foam was stable (did not collapse rapidly). As to conditions: approximately one gram of component in 15 grams of 70% w/w ethanol solution (aqueous), shaken by hand for 15 seconds. On the procedure:
A number of different components were screened to evaluate their ability to create a stable foam in a 70% w/w ethanol solution (aqueous). For this evaluation, approximately one gram of each component was added to 15 grams of the ethanol solution in a vial.
Take `CC(O)C(=O)O.CCCCCCCCCCCCCCCCCC(=O)NCCCN(C)C` [Stearamidopropyl dimethylamine lactate]: the “Foam Profile” value was “Poor”.
Isostearamidopropyl Morpholine Lactate: the “Foam Profile” value is reported as “Poor”.
Turning to Lauramine Oxide, the “Foam Profile” value was “Poor”.
`CO[C@H]1CO[C@H]2[C@@H]1OC[C@H]2OC` [Dimethyl Isosorbide]: the “Foam Profile” value was “Poor”.
`CCCCCCCC/C=C\CCCCCCCC[N+](C)(C)Cc1ccccc1.[Cl-]` [Olealkonium chloride]: the “Foam Profile” value is on record as “Poor”.
With Glycereth-18 Ethylhexanoate, the “Foam Profile” value is recorded as “Moderate”.
As to `CCCCCCCCCC[N+](C)(C)CCCCCCCCCC.[Cl-]` [Didecyl dimethyl ammonium chloride], the “Foam Profile” value was “Poor”.
With Glycereth-7 Cocoate, the “Foam Profile” value was “Poor”.
On to Alkyl Glucoside, for which the “Foam Profile” value is “Poor”.
The same measure, in the same setting: then “Cocamidopropyl PG-Dimonium Chloride Phosphate”, with “Poor”; and `CCCCCCCCCCCCCCCCCCCCCC[N+](C)(C)C.COS(=O)(=O)[O-]` [Behentrimonium Methosulfate], with “Poor”.
For the molecule PPG-15 Stearyl Ether, the “Foam Profile” value is “Poor”.
Take `CCCCCCCCCCCC(=O)OC(C)C(=O)OC(C)C(=O)[O-].[Na+]` (centres unmarked) [Sodium Lauroyl Lactylate]: the “Foam Profile” value is “Poor”.
As for Quaternium-26, the “Foam Profile” value is listed as “Poor”.
`OCC(O)CO` [Glycerin]: the “Foam Profile” value is “Poor”.
In the case of Quaternium-92, the “Foam Profile” value was “Poor”.
Take `CCCCCCCCCCCCCC(=O)NCCC[N+](C)(C)CC(O)CO.[Cl-]` (centres unmarked) [Myristamidopropyl PG-dimonium chloride]: the “Foam Profile” value was “Poor”.
The same measure, in the same setting: under POE-2 Coco Amine stands “Poor”.

The next data set deals with Serratia marcescens. Description: Pigskin model, 1 and 5 inoculation/treatment cycles. To be noted: 1 inoculation/treatment cycle, FIG. 4. The protocol:
Each sample was evaluated at two different inoculation/treatment cycles, i.e., at 1 inoculation/treatment and 5 inoculations/treatments. Tests were completed using the pigskin model, the inoculant, Serratia marcescens, and 1 and 5 inoculation/treatment cycles. The “pigskin model” is a method designed to simulate a HCPHW test using pigskins prepared according to the method described in U.S. Pat. No. 7,985,773 to […] et al., incorporated herein by reference. In this example, pigskin pairs were inoculated with bacteria, rubbed together for 15 seconds, and allowed to air dry for 1 minute. The two different ethanol solutions having concentrations of 62% w/w and 70% w/w and two different product formulations N and O, one having 62% w/w ethanol (N) and the other having 70% w/w ethanol (O), were applied to pairs of pigskins (0.2 ml per pair/0.1 ml per piece). The pairs of pigskins (having the same treatment) were rubbed together for 30 seconds and allowed to air dry for 4 minutes. Neutralizer was then applied to the pigskins, they were debrided for 30 seconds, serially diluted and plated.
As for `CCO` [ethanol], the log reduction entry was “did provide efficacy”.

Still in this data set, the particulars now being: 5 inoculation/treatment cycles, FIG. 4.
In the case of `CCO` [ethanol], the log reduction entry is listed as “efficacy decreased”.

The values above are taken from patent publication US9089129B2, “Non-aerosol foaming alcohol hand sanitizer” (AMERICAN STERILIZER COMPANY, priority 2011, dated 2015).
